Results taken from patent US11618770B2, “MUC1-derived peptide, and pharmaceutical composition for treatment or prevention of cancer, immunity-inducing agent and method for manufacturing antigen presenting cell using same” (NEC CORPORATION, priority 2015, dated 2023).
Ends that are not written are not given here.

Assays:
HLA-A*02:01 molecule = molecular target: T1, HLA-A*02:01 molecule (Homo sapiens, UniProt P04439, D140Y/D185E/D98H/E176V/E277Q/G131W/G231S/I119V/I121R/I166T/I218V/L300P/L318F/N151K/N90K/P208A/P217A/Q86G/Q94H/R138H/R169H/T345S); experiment: Experiment of binding peptide to HLA-A*02:01 molecule (T2 cells, antibody BB7.2, flow cytometer); conditions: for Kd: given as negative numbers (log of Kd value), T2 cells, 37° C. 4 hours
T1 construct: a cell line T2 (purchased from ATCC) expressing the HLA-A*02:01 molecule; host or cells: T2 cells
Protocol: Experiment of Binding Peptide to HLA-A*02:01 Molecule
The ability of each of the peptides to bind to an HLA-A*02:01 molecule, which is an HLA-A*02:01 gene product, was measured using a cell line T2 (purchased from ATCC) expressing the HLA-A*02:01 molecule.
The T2 cells and purified β2m were added to a series of serial dilutions of the peptide whose binding ability would be measured, and then incubation was carried out at 37° C. for 4 hours. The HLA-A*02:01 molecule that had increased in an expression amount in a peptide-concentration-dependent manner up to this point was stained using a fluorescently labeled monoclonal antibody BB7.2, which is specific to an association type.
(§1) Thereafter, the amount of fluorescence per cell was measured using a flow cytometer, and a dissociation constant Kd value was calculated using a method that was reported in a paper (Udaka et al., Immunogenetics, 51, 816-828, 2000) by the inventors of the present invention.

HLA-A*24:02 molecule = HLA-A*24:02 molecule (Homo sapiens, UniProt P04439, D101N/D140Y/D185E/E176V/E190D/F33S/G103R/G107R/I119L/I121M/I306V/K335N/L105A/L180Q/L300P/N151K/N90K/Q86E/Q94H/R106L/R138H/R89G/T104I/T345S/V100E/W191G/Y123F); experiment: Experiment of binding peptide to HLA-A*24:02 molecule (C1R-A24 cells, antibody 17A12, FACS); conditions: for Kd: given as negative numbers (log of Kd value), C1R-A24 cells, on ice 4 hours
Protocol: Experiment of Binding Peptide to HLA-A*24:02 Molecule
The ability of each of the peptides to bind to an HLA-A*24:02 molecule, which is an HLA-A*24:02 gene product, was measured using C1R-A24 cells expressing the HLA-A*24:02 molecule (cells prepared by Professor Masafumi TAKIGUCHI, Kumamoto University being supplied with permission by Assistant Professor Masaki YASUKAWA, Ehime University).
First, C1R-A24 cells were exposed to acidic conditions at a pH of 3.3 for 30 seconds, and thus an endogenous peptide that originally binds to the HLA-A*24:02 molecule, and a light chain β2m, which is associated with HLA class-I molecules in common, were dissociated and removed. After neutralization, a purified β2m was added to C1R-A24 cells, and the obtained product was added to a series of dilutions of the peptide and incubated on ice for 4 hours. Staining was carried out using a fluorescently labeled monoclonal antibody 17A12, which recognizes association (MHC-pep) of the three members, that is, a HLA-A*24:02 molecule, a peptide, and β2m, which had reassociated during the incubation.
Thereafter, the MHC-pep count per C1R-A24 cell (proportional to the intensity of fluorescence of the above-mentioned fluorescent antibody) was quantitatively measured using a fluorescence-activated cell sorter FACScan (Becton-Dickinson). A binding-dissociation constant Kd value between the HLA-A*24:02 molecule and the peptide was calculated from the average intensity of fluorescence per cell using a method that was reported in a paper (Udaka et al., Immunogenetics, 51, 816-828, 2000) by the inventors of the present invention.

HLA-A*02:06 molecule = molecular target: T2, HLA-A*02:06 molecule (Homo sapiens, UniProt P04439, D140Y/D185E/D98H/E176V/E277Q/F33Y/G131W/G231S/I119V/I121R/I166T/I218V/L300P/L318F/N151K/N90K/P208A/P217A/Q86G/Q94H/R138H/R169H/T345S); experiment: Experiment of binding peptide to HLA-A*02:06 molecule (RA2.6 cells, antibody BB7.2, flow cytometer); conditions: for Kd: given as negative numbers (log of Kd value), RA2.6 cells
T2 construct: expressed in transfected cells; host or cells: RA2.6 cells (mouse TAP-deficient RMAS cells carrying HLA-A*02:06 cDNA)
Protocol: Experiment of Binding Peptide to HLA-A*02:06 Molecule
The ability of each of the peptides to bind to an HLA-A*02:06 molecule, which is an HLA-A*02:06 gene product, was measured using RA2.6 cells (cell line that had been newly produced in Kochi University) produced by introducing the cDNA of the HLA-A*02:06 gene into a mouse TAP (transporter associated with antigen processing)-deficient cell line RMAS.
First, RA2.6 cells were cultured at 26° C. overnight.
Thereafter, the cells were cultured at 35° C. for 4 hours. […] A fluorescently labeled monoclonal antibody BB7.2, which specifically recognizes a peptide-binding HLA-A*02:06 molecule, was added thereto, incubation was carried out on ice for 20 minutes, and thus the cells were stained.
as §1

CD8T cells = experiment: Peptide immunity induction testing (peptide-stimulated dendritic cells cocultured with CD8T cells, IFN-γ ELISA); type: cell-based, human
Protocol: Peptide Immunity Induction Testing
Of the peripheral blood monocytes obtained through pheresis from a patient (0) that had undergone a dendritic cell/CTL therapy against MUC1, a cell fraction that adhered to a culture flask was cultured in an AIM-CM culture medium (manufactured by Gibco) at 37° C. for 10 days. During the culture, 15 μl of IL-4 and 30 μl of a granulocyte monocyte colony-stimulating factor (GM-CSF) added to the culture medium on Day 0 and Day 3, and 15 μl of IL-4, 30 μl of GM-CSF, and 75 μl of a tumor necrosis factor (TFN)-α were added thereto on Day 5.
Induced dendritic cells were collected in a new AIM-CM culture medium, and the peptide of the present invention (Sequence ID Nos. 1 to 12) was added thereto to a concentration of 20 μg/ml. […]
CD8T cells were isolated from the culture medium using a CD8 negative selection kit (manufactured by Miltenyi), and the number of cells was counted. […]
The culture supernatant of the coculture of the T cells and the dendritic cells pulsed with the above-mentioned peptides on Day 7 was diluted to four steps, that is, ×1, ×5, ×25, and ×125, and the dilution step within a measurement limit was identified using Human IFN-γ ELISA MAX Deluxe Set (manufactured by BioLegend). Thereafter, at the identified dilution step, each sample was measured three times. […]

Sequence	Kd (HLA-A*02:01 molecule)	Kd (HLA-A*24:02 molecule)	Kd (HLA-A*02:06 molecule)	Binding to HLA-A*02:01 molecule (in words) (HLA-A*02:01 molecule)	Binding to HLA-A*24:02 molecule (in words) (HLA-A*24:02 molecule)	Binding to HLA-A*02:06 molecule (in words) (HLA-A*02:06 molecule)	Immunogenicity (in words) (CD8T cells)
SVPVTRPAL [Seq. ID No. 2, SVPVTRPAL]	125 µM	0.0573 µM	2.36 µM	–	–	–	–
AFREGTINV [Seq. ID No. 4, AFREGTINV]	> 1000 µM	1.47 µM	> 1000 µM	–	–	–	–
HHSDTPTTL [Seq. ID No. 7, HHSDTPTTL]	> 1000 µM	1.36 µM	> 1000 µM	–	–	–	–
TLAFREGTI [Seq. ID No. 9, TLAFREGTI]	> 1000 µM	1.06 µM	820 µM	–	–	–	–
LQRDISEMF [Seq. ID No. 6, LQRDISEMF]	> 1000 µM	0.226 µM	54.9 µM	–	–	–	–
SFFFLSFHI [Seq. ID No. 8, SFFFLSFHI]	> 100 µM	0.0861 µM	105 µM	–	–	–	–

These reach a lower Kd (HLA-A*02:01 molecule). Values come first.

Kd (HLA-A*02:01 molecule)	Kd (HLA-A*24:02 molecule)	Kd (HLA-A*02:06 molecule)	Binding to HLA-A*02:01 molecule (in words) (HLA-A*02:01 molecule)	Binding to HLA-A*24:02 molecule (in words) (HLA-A*24:02 molecule)	Binding to HLA-A*02:06 molecule (in words) (HLA-A*02:06 molecule)	Sequence	Immunogenicity (in words) (CD8T cells)
28.3 µM	1.18 µM	1.73 µM	–	–	–	GVPGWGIAL [Seq. ID No. 3, GVPGWGIAL]	–
4.07 µM	0.0845 µM	41.1 µM	–	–	–	FLGLSNIKF [Seq. ID No. 1, FLGLSNIKF]	–
15.4 µM	0.711 µM	150 µM	–	–	–	AASRYNLTI [Seq. ID No. 5, AASRYNLTI]	–
18.2 µM	> 1000 µM	2.18 µM	–	–	–	FSAQSGAGV [Seq. ID No. 12, FSAQSGAGV]	–
7.55 µM	6.74 µM	6.19 µM	strongly binds	strongly binds	strongly binds	STGVSFFFL [Seq. ID No. 10, STGVSFFFL]	high immunogenicity
0.366 µM	> 1000 µM	0.448 µM	–	–	–	GQDVTSVPV [Seq. ID No. 11, GQDVTSVPV]	–
